According to patent publication US20070032551A1, “Salt of dimethylaminomethyl-phenyl-cyclohexane and crystalline forms thereof” (GRUENENTHAL GMBH, priority 2005, published 2007):

Assays:
[1] = Hygroscopicity (general statement); format: physicochemical
[2] = Solubility (general statement)
[3] = Bioavailability (general statement)
[4] = Water uptake of fumarate and hydrochloride by DVS (Example E8); format: physicochemical; conditions: 25° C.
Description: (§1) The water uptake is determined by means of dynamic water vapor uptake (dynamic vapor sorption, DVS) with the DVS-1 apparatus from Surface Measurement Systems Ltd. The sample is placed in a platinum crucible on the tip of a microbalance. The sample is then first equilibrated at 50% relative atmospheric humidity and subsequently subjected to a predefined measurement program. The temperature is 25° C. The change in weight of the sample after a stepwise increase in the relative atmospheric humidity by in each case 10% to 90% is determined.

[5] = Damp storage and drying of fumarate and hydrochloride (Example E9); format: physicochemical; conditions: for change in the crystalline form (X-ray diffraction diagrams): after damp storage and drying; for DW (dry weight), starting value / WC (Karl Fischer water content), starting value: before the start of the storage
Description: Fumarate and hydrochloride according to Example E8 are first stored at 25° C. and 75% and 95% relative atmospheric humidity for 7 days and thereafter at 50° C. in vacuo in a drying cabinet for 7 days. Before the start of the storage, the X-ray diffraction diagrams (XRD), DSC for determination of transition points (Tp) and dry weight (DW) and the Karl Fischer water content (WC) are determined, and the same values are determined after the damp storage and drying. The X-ray diffraction diagrams show no change in the crystalline forms A and D after damp storage and drying. The starting values for the hydrochloride are Tp=116.27° C., DW=6.35% and WC=8.00%. The starting values for the fumarate are Tp=93.11° C. and 175.14° C., DW=0 and WC=0.2%. The results are given in Tables 7 (75% relative atmospheric humidity) and 8 (95% relative atmospheric humidity).

[6] = Storage at room temperature in high and low atmospheric humidity, crystal form by Raman (Examples E1-E3, B1); format: physicochemical; conditions: for crystalline form after storage / crystalline form after storage (Raman): room temperature
Description: Unless stated otherwise, the crystal forms are determined by comparison of the Raman spectra.
a) 30 mg of the amorphous fumarate prepared according to Example Bi are stored at room temperature and 75% relative atmospheric humidity for 5 days.
b) 30 mg of the amorphous fumarate prepared according to Example B2 are stored at room temperature and 90% relative atmospheric humidity for 3 days.
c) 30 mg of the amorphous fumarate prepared according to Example B2 are stored at room temperature and 53% relative atmospheric humidity for 2 months.
d) 30 mg of the amorphous fumarate prepared according to Example B2 are stored at room temperature and 22% relative atmospheric humidity for 2 months. Thereafter, the amorphous product is still present.
The fumarate prepared according to Example C3 is stored at room temperature and 75% relative atmospheric humidity, and after 3 days and 1, 2, 3, 4 and 8 weeks samples are analyzed by means of Raman spectroscopy.
The crystalline form B prepared according to Example A1 is stored at room temperature and 75% relative atmospheric humidity, and after 3 days and 1, 2, 3, 4 and 8 weeks samples are analyzed by means of Raman spectroscopy.

[7] = Water uptake by dynamic vapor sorption (Example E6); format: physicochemical; conditions: 25° C.; for crystalline form present at the end of the DVS measurement: fumarate; for water uptake: DVS
Description: as §1, with “sample” for “sample after a stepwise increase in the relative atmospheric humidity by in each case 10% to 90%”

[8] = Stability under grinding conditions (Example E4); format: physicochemical; conditions: for crystalline form after trituration: pestle in a mortar dish, 5 minutes; for crystalline form after grinding: agate ball mill, 20 Hz, room temperature, 180 minutes
Description: The fumarate prepared according to Example C3 is triturated with a pestle in a mortar dish for 5 minutes.
The fumarate prepared according to Example A1 is introduced into an agate ball mill (Retsch MM200 mixing mill with 5 mm agate balls) and ground at 20 Hz and room temperature for 180 minutes.

[9] = Stability under pressure, pressing of tablets (Example E5); format: physicochemical; conditions: 100 MPa in vacuo, 60 minutes
Description: The fumarate prepared according to Example C3 is introduced into a tablet press and pressed to a tablet under a pressure of 100 MPa in vacuo for 60 minutes.

[10] = Stability at elevated temperature, HPLC and FT Raman (Example E7); format: physicochemical; conditions: for stability at elevated temperature (in words): open and closed vessels
Description: The crystalline forms are stored in open and closed vessels and possible changes are measured as stability parameters by chromatography (HPLC) after a given time.

[11] = 75% r.h. storage, then drying at 50° C. in vacuo for 7 days
[12] = 95% r.h. storage, then drying at 50° C. in vacuo for 7 days
[13] = after damp storage, 25° C., 75% relative atmospheric humidity, 7 days
[14] = after damp storage, 25° C., 95% relative atmospheric humidity, 7 days
[15] = 75% relative atmospheric humidity, after 8 weeks, fumarate
[16] = 40° C./75% r.h., 1 week, fumarate
[17] = 60° C. (closed), 1 week, fumarate
[18] = 60° C. (closed), 4 weeks, fumarate
[19] = 60° C./75% r.h., 4 weeks, fumarate

SMILES | hygroscopicity [1] | WC (%) [5, 11] | WC (%) [5, 12] | change in the crystalline form (X-ray diffraction diagrams) [5] | WC (%) [5, 13] | WC (%) [5, 14] | DW (dry weight), starting value [5] | WC (Karl Fischer water content), starting value [5] | crystalline form present at the end of the DVS measurement [7] | crystalline form after storage (Raman) [6, 15] | crystalline form after pressing to a tablet [9] | water uptake ([7]; measurement cycle) | HPLC [10, 16] | HPLC [10, 17] | HPLC [10, 18] | HPLC [10, 19] | stability at elevated temperature (in words) ([10]; fumarate) | HPLC ([10]; −18° C. (reference), 4 weeks) | solubility in polar solvents [2] | also measured
CN(C)CC1CCCCC1c1cccc(O)c1.O=C(O)/C=C/C(=O)O (centres unmarked) [3-[2-(dimethylamino)methyl-(cyclohex-1-yl)]-phenol fumarate] | not hygroscopic | – | – | – | – | – | – | – | – | – | – | – | – | – | – | – | – | – | – | solubility ([2]; particularly in polar and protic solvents, including water): good; bioavailability [3]: good
CN(C)C[C@@H]1CCCC[C@H]1c1cccc(O)c1.Cl [Hydrochloride, (+)-(1R,2R)-3-[2-(Dimethylamino)methyl-(cyclohex-1-yl)]-phenol hydrochloride] | – | 6.00% | 6.60% | no change | 8.50% | 8.50% | 6.35% | 8.00% | – | – | – | – | – | – | – | – | – | – | – | water uptake in total ([4]; 90% relative atmospheric humidity): about 5 wt. %; water uptake ([4]; relative atmospheric humidity increased to about 75%): about 2 wt. %; water released on desorption, in total ([4]; stepwise lowering of relative atmospheric humidity by 10%): 8.5%; DW (%) [5, 11]: 6.12%; DW (%) [5, 12]: 6.74%; DW (%) [5, 13]: 5.92%; DW (%) [5, 14]: 7.84%
CN(C)C[C@@H]1CCCC[C@H]1c1cccc(O)c1.O=C(O)/C=C/C(=O)O [amorphous form, (+)-(1R,2R)-3-[2-(dimethylamino)methyl-(cyclohex-1-yl)]-phenol fumarate] | – | – | – | – | – | – | – | – | crystalline form A | – | – | – | – | – | – | – | – | – | – | form after storage ([6]; 22% relative atmospheric humidity and 25° C., after 2 months): still amorphous; crystalline form after storage ([6]; 22% relative atmospheric humidity, 2 months): still present; crystalline form after storage ([6]; 53% relative atmospheric humidity, 2 months): converted completely into the crystalline form B; crystalline form after storage ([6]; 75% relative atmospheric humidity, 5 days): converted completely into the crystalline form B; crystalline form after storage ([6]; 90% relative atmospheric humidity, 3 days): converted completely into the crystalline form B; water uptake ([7]; up to about 77% relative atmospheric humidity): about 6.5 wt. %
CN(C)C[C@@H]1CCCC[C@H]1c1cccc(O)c1.O=C(O)/C=C/C(=O)O [crystalline form A, (+)-(1R,2R)-3-[2-(dimethylamino)methyl-(cyclohex-1-yl)]-phenol fumarate] | – | – | – | – | – | – | – | – | substantially the crystalline form B | crystalline form B is also present | mixture of the crystalline forms A and B | about 0.2 wt. % | 99.5% | 99.9% | 99.6% | 99.3% | very stable in respect of chemical stability and crystal form | 100% | very good | crystalline form after storage (Raman) ([6]; 75% relative atmospheric humidity, after 3 days): converted into the crystalline form B; crystalline form after trituration ([8]; listed as Example C3, fumarate): mixture of the crystalline form A and B; FT Raman (determination of the crystalline form) ([10]; 60° C. (closed), 1 week): A and B; FT Raman (determination of the crystalline form) ([10]; 60° C. (closed), 4 weeks): A and B; FT Raman (determination of the crystalline form) ([10]; −18° C. (reference), 4 weeks): A and B
CN(C)C[C@@H]1CCCC[C@H]1c1cccc(O)c1.O=C(O)/C=C/C(=O)O [crystalline form B, (+)-(1R,2R)-3-[2-(dimethylamino)methyl-(cyclohex-1-yl)]-phenol fumarate] | not hygroscopic | 0.30% | 0.30% | no change | 0.50% | 0.50% | 0% | 0.2% | unchanged | practically unchanged | mixture of the crystalline forms A and B | about 0.2 wt. % | 100.0% | 99.0% | 100.6% | 99.1% | very stable in respect of chemical stability | 100% | very good | crystalline form after grinding ([8]; fumarate): mixture of the crystalline forms A and B; crystalline form after grinding ([8]; listed as Example A1, fumarate): mixture of the crystalline form A and B; crystalline form after trituration ([8]; fumarate): unchanged; release of absorbed moisture on desorption ([4]; at about 10% relative atmospheric humidity): released again completely; water uptake ([4]; stepwise increase of relative atmospheric humidity by 10% to 90%): 0.13%
CN(C)CC1CCCCC1c1cccc(O)c1.Cl (centres unmarked) [3-[2-(dimethylamino)methyl-(cyclohex-1-yl)]-phenol hydrochloride, reference compound] | decidedly hygroscopic | – | – | – | – | – | – | – | – | – | – | – | – | – | – | – | – | – | – | –
